The values below come from patent publication US5624906A, “Oral hygiene compositions comprising heteroatom containing alkyl aldonamide compounds” (Lever Brothers Company, Division of Conopco, Inc., priority 1994, dated 1997).

Series [1] is described as follows: Effectiveness in reducing surface tension (surface pressure at CMC). The following applies: 60 °C, estimated by extrapolating a linear line. Format: physicochemical. The text has this:
As mentioned before, surface tension reduction depends on the replacement of water molecules at the interface by surfactant molecules, therefore the effectiveness of a surfactant in reducing interfacial surface tension should reflect the saturated concentration of surfactant at the interface relative to that in bulk liquid phase. During this process the surface tension of water steadily decreases as bulk phase surfactant concentration increases. This will continue until the concentration reaches the critical micelle concentration (CMC), above which the surface tension remains nearly unchanged and the interface is saturated with surfactant. The surface tension at the CMC is therefore very close to the minimum interfacial tension or maximum surface pressure that the system can achieve. The surface pressure at this point, IIcmc, is a suitable measure of the effectiveness of a surfactant in reducing surface tension and is given as:
IIcmc =20+2.3nRT(Γmax) log[CMC/C20 ]
n=1 which represents the number of ions whose surface concentration changes with the change in liquid phase surfactant concentration.
CMC/C20 =is the ratio of the critical micelie concentration to the bulk phase surfactant concentration necessary to reduce the surface tension of water by 20 dyn/cm.

Series [2] is described as follows: Effectiveness of adsorption (surface excess concentration, Gibbs equation). Format: physicochemical. The following applies: 60 °C, estimated by extrapolating a linear line. The text has this: The surface excess concentration at surface saturation (Γmax) is defined as a measure of the effectiveness of surfactant adsorption at the water/air interface and represents the maximum value to which adsorption can be obtained. Effectiveness of adsorption is related to the interfacial area occupied by the surfactant molecule. The smaller the effective cross-sectional area of a surfactant at the interface, the greater its effectiveness of adsorption. The effectiveness of adsorption is an important factor in determining surfactant properties such as detergency, foaming, wetting or emulsification. While not wishing to be bound by theory, it is believed that surfactants that absorb effectively at the interface tend have tightly packed coherent interfacial films and often provide better surfactant benefits than those with loosely packed noncoherent films. The effectiveness of adsorption of C8 /C10 oxypropyl D-gluconamide was determined using the Gibbs equation given as: […]
(∂γ/∂log[Conc])T

For series [3] the following is noted: 25 °C; cited from earlier work.
The conditions of series [4]: cited from earlier work.
The conditions of series [5]: cited from earlier work. This is another data set of the same source.

Read-outs that look alike come from different tables or passages of the source.

With `CCCCCCCCCCCCOCCOCCOCCOCCOCCOCCOCCOCCO` [Dodecylocta(oxyethylene) Ether], the “Πcmc (surface pressure)” value is 36.3 dyn/cm in series [1], 37.2 dyn/cm in series [4] (25 °C) and 37.3 dyn/cm in series [4] (40 °C). The “Γmax (surface excess concentration at surface saturation)” value is on record as 2.40 × 10^-10 mole/cm^2 in series [2], 2.52 × 10^-10 mole/cm^2 in series [5] (25 °C) and 2.46 × 10^-10 mole/cm^2 in series [5] (40 °C). The pC20 in series [3] is 5.20.
